Experimental data: PMC9596378, “Discovery and molecular basis of subtype-selective cyclophilin inhibitors” (Nature Chemical Biology, 2022)
Values joined by “and” are separate entries in the source; they are usually repeats but may differ in a detail not shown here. Equal entries are not always repeated. Where two headings read alike, the source gives them in different places.

What was measured:
CypD = CypD (Homo sapiens, UniProt P30405); experiment: Chymotrypsin coupled prolyl-isomerase assay; conditions: for CypD prolyl-isomerase assay raw dose-response value: Fig. 3b source data, replicates
Sequence of CypD (P30405 45-207): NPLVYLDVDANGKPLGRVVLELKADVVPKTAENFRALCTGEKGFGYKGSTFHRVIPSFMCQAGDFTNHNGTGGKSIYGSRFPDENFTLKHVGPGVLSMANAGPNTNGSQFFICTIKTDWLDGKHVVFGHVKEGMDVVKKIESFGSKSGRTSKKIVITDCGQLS

CypA E81S/K82R = target: T1, CypA E81S/K82R (Homo sapiens, UniProt P62937, E81S/K82R); experiment: Chymotrypsin coupled prolyl-isomerase assay; type: biochemical; conditions: mutant CypA E81S/K82R; read-out: Mutant Cyclophilin Prolyl Isomerase Inhibition IC50 Values, CypA E81S/K82R
T1 construct: Lane 12- SNA-CypA E81S/K82R (1-165);; His6 tag with TEV site (2BT vector); SNA remnant stays on the N-terminus (N, cleaved yes); made in house; host or cells: E. coli BL21(DE3)
T1 sequence (P62937 whole entry E81S/K82R): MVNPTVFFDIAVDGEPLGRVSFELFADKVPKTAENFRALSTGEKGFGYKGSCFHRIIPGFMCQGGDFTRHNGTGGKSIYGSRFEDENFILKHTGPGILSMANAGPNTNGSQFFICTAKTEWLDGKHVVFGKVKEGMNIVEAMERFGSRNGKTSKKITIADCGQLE
Procedure, shortened: (§1)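 Chymotrypsin-coupled cis–trans isomerization of Suc-AAPF-AMC (5 µM) catalysed by 5 nM cyclophilin, run cold (2–3 °C) at pH 7.3 with 5 min compound preincubation.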

CypD K118A = target: T2, CypD K118A (Homo sapiens, UniProt P30405, K118A); experiment: Chymotrypsin coupled prolyl-isomerase assay; type: biochemical; conditions: prolyl-isomerase inhibition
T2 construct: made in house; host or cells: E. coli BL21(DE3)
T2 sequence (P30405 45-207 K118A): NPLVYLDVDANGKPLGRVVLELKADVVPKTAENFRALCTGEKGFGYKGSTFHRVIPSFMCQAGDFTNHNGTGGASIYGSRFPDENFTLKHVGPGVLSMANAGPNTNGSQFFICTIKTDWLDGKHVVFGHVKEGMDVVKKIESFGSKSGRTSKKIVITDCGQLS
Procedure, shortened: as §1

CypD R124K = target: T3, CypD R124K (Homo sapiens, UniProt P30405, R124K); experiment: Chymotrypsin coupled prolyl-isomerase assay; type: biochemical; conditions: mutant CypD R124K; read-out: Mutant Cyclophilin Prolyl Isomerase Inhibition IC50 Values, CypD R124K
T3 construct: made in house; host or cells: E. coli BL21(DE3)
T3 sequence (P30405 45-207 R124K): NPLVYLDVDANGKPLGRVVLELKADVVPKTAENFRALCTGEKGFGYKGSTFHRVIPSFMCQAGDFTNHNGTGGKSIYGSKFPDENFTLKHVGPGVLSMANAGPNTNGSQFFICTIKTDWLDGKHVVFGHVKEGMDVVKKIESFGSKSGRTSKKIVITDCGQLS
Procedure, shortened: as §1

CypD S123E = target: T4, CypD S123E (Homo sapiens, UniProt P30405, S123E); experiment: Chymotrypsin coupled prolyl-isomerase assay; type: biochemical; conditions: prolyl-isomerase inhibition
T4 construct: made in house; host or cells: E. coli BL21(DE3)
T4 sequence (P30405 45-207 S123E): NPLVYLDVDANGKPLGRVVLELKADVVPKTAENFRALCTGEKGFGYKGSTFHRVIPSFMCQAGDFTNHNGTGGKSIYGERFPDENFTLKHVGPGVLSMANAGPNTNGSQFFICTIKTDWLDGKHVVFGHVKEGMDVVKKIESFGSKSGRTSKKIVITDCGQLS
Procedure, shortened: as §1

CypB E121S = target: T5, CypB E121S (Homo sapiens, UniProt P23284, E121S); experiment: biochemical; conditions: mutant CypB E121S; read-out: Mutant Cyclophilin Prolyl Isomerase Inhibition IC50 Values, CypB E121S
T5 construct: Lane 14- SNA-CypB E121S (34-216);; His6 tag with TEV site (2BT vector); SNA remnant stays on the N-terminus (N, cleaved yes); made in house; host or cells: E. coli BL21(DE3)
T5 sequence (P23284 34-216 E121S): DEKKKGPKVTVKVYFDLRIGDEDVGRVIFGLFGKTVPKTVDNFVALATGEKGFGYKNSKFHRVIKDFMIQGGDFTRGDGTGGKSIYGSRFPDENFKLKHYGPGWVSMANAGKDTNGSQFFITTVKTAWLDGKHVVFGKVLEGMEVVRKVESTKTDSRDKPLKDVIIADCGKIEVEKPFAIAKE
Procedure, shortened: as §1

Cyp40 = Cyp40 (Homo sapiens, UniProt Q08752); experiment: Chymotrypsin coupled prolyl-isomerase assay; conditions: for Cyp40 prolyl-isomerase assay raw dose-response value: Fig. 3b source data, replicates
Sequence of Cyp40 (Q08752 1-183): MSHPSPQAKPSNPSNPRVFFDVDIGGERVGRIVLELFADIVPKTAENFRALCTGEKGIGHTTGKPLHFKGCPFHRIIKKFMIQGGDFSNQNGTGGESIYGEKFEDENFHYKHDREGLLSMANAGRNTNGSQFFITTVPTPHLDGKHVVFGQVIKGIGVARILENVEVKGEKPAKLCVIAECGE
Procedure, shortened: as §1

PPWD1 = target: T6, PPWD1 (Homo sapiens, UniProt Q96BP3); experiment: Chymotrypsin coupled prolyl-isomerase assay; type: biochemical; conditions: for PPWD1 prolyl-isomerase assay raw dose-response value: Fig. 3b source data, replicates
T6 construct: PPWD1 (UniProtKB Entry Q96BP3: residues 473–646); host or cells: E. coli BL21(DE3)
T6 sequence (Q96BP3 473-646): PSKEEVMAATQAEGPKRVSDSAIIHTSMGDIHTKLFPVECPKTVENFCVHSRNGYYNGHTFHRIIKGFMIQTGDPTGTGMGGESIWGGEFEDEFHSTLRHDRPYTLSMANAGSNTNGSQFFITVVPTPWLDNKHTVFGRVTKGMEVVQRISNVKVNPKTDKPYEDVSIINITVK
Procedure: Five microliters of compound pre-dissolved in 5% DMSO/assay buffer was then added to appropriate wells and incubated at 2–3 °C for 5 min. Five microliters of 0.5 mM α-chymotrypsin from bovine pancreas (Type II, lyophilized powder, Millipore-Sigma) in 20% 1 mM HCl/Assay Buffer was then added to each well and incubated at 2–3 °C for 5 min. The plate was then quickly transferred to a FLIPR Tetra High-Throughput Cellular Screening System (Molecular Devices). Using the internal liquid handling system of the FLIPR, 1 µL 0.5 mM Suc-AAPF-AMC (Chymotrypsin Substrate II, Millipore-Sigma) dissolved in 0.55 M LiCl/2,2,2-trifluoroethanol was added to each well, which was then mixed for 5 s, followed by immediate fluorescence measurements every 1 s for 330 s using a 360–380 nm excitation LED module and a 400–460 nm emission filter. […] Raw fluorescence data was analyzed by non-linear regression analysis with Prism v.9 by fitting one-phase association curves to each well. Analyses were halted after the calculated maximum fluorescent value owing to observed fluorescent bleaching during the sustained fluorescent plateau. Rate constants calculated for each well (s^−1) were then normalized to substrate only (no prolyl-isomerase) and enzyme + substrate only controls.

## NCCOCCNC(=O)[C@@H]1CCNC(=O)/C=C/C(=O)N2CCC[C@](Cc3ccccc3)(C2)C(=O)N[C@@H](Cc2ccc(-c3ccc(C#CC(=O)O)cc3)cc2)C(=O)NCc2ccccc2CC(=O)N1 [Compound B25]
CypD
  IC50: 3 nM
CypD; Dose 0.000457247 µM
  CypD prolyl-isomerase assay raw dose-response value: 0.0674 and 0.06729 and 0.07005
CypD; Dose 0.00137174 µM
  CypD prolyl-isomerase assay raw dose-response value: 0.06909 and 0.05826 and 0.0465
CypD; Dose 0.00411523 µM
  CypD prolyl-isomerase assay raw dose-response value: 0.04183 and 0.04697 and 0.03133
CypD; Dose 0.0123457 µM
  CypD prolyl-isomerase assay raw dose-response value: 0.02432 and 0.02391 and 0.02276
CypD; Dose 0.037037 µM
  CypD prolyl-isomerase assay raw dose-response value: 0.01562 and 0.01516 and 0.01481
CypD; Dose 0.111111 µM
  CypD prolyl-isomerase assay raw dose-response value: 0.01259 and 0.0133 and 0.01227
CypD; Dose 0.333333 µM
  CypD prolyl-isomerase assay raw dose-response value: 0.01238 and 0.01154 and 0.0111
CypD; Dose 1 µM
  CypD prolyl-isomerase assay raw dose-response value: 0.01437 and 0.01145 and 0.01083
CypA E81S/K82R
  IC50: 6.2 nM
CypD K118A
  IC50: 19 nM
CypD R124K
  IC50: 2.9 nM
CypD S123E
  IC50: 8 nM
CypB E121S
  IC50: 2.2 nM
Cyp40; Dose 0.00457247 µM
  Cyp40 prolyl-isomerase assay raw dose-response value: 0.06429 and 0.05599 and 0.07223
Cyp40; Dose 0.0137174 µM
  Cyp40 prolyl-isomerase assay raw dose-response value: 0.05813 and 0.05507 and 0.05318
Cyp40; Dose 0.0411523 µM
  Cyp40 prolyl-isomerase assay raw dose-response value: 0.04821 and 0.05825 and 0.0731
Cyp40; Dose 0.123457 µM
  Cyp40 prolyl-isomerase assay raw dose-response value: 0.04592 and 0.05196 and 0.05288
Cyp40; Dose 0.37037 µM
  Cyp40 prolyl-isomerase assay raw dose-response value: 0.03591 and 0.03468 and 0.03748
Cyp40; Dose 1.11111 µM
  Cyp40 prolyl-isomerase assay raw dose-response value: 0.02292 and 0.02127 and 0.02239
Cyp40; Dose 3.33333 µM
  Cyp40 prolyl-isomerase assay raw dose-response value: 0.01681 and 0.01439 and 0.01521
Cyp40; Dose 10 µM
  Cyp40 prolyl-isomerase assay raw dose-response value: 0.01651 and 0.01201 and 0.01273
Cyp40; Wild-Type Cyclophilin Prolyl Isomerase Inhibition IC50 Values, Cyp40, wild-type Cyp40
  IC50: 210 nM
PPWD1; Dose 0.0228624 µM
  PPWD1 prolyl-isomerase assay raw dose-response value: 0.03895 and 0.0361 and 0.043
PPWD1; Dose 0.0685871 µM
  PPWD1 prolyl-isomerase assay raw dose-response value: 0.04294 and 0.03257 and 0.04643
PPWD1; Dose 0.205761 µM
  PPWD1 prolyl-isomerase assay raw dose-response value: 0.03704 and 0.0362
PPWD1; Dose 0.617284 µM
  PPWD1 prolyl-isomerase assay raw dose-response value: 0.03731 (2×) and 0.0336
PPWD1; Dose 1.85185 µM
  PPWD1 prolyl-isomerase assay raw dose-response value: 0.03718 and 0.0343 and 0.0411
PPWD1; Dose 5.55556 µM
  PPWD1 prolyl-isomerase assay raw dose-response value: 0.03268 and 0.0311 and 0.02851
PPWD1; Dose 16.6667 µM
  PPWD1 prolyl-isomerase assay raw dose-response value: 0.02501 and 0.02576 and 0.02254
PPWD1; Dose 50 µM
  PPWD1 prolyl-isomerase assay raw dose-response value: 0.01888 and 0.01599 and 0.01588
PPWD1; prolyl-isomerase inhibition, 5 nM cyclophilin, read-out: IC50 PPWD1
  IC50: ~10000 nM
PPWD1; wild-type PPWD1, read-out: Wild-Type Cyclophilin Prolyl Isomerase Inhibition IC50 Values, PPWD1
  IC50: 10000 nM
